Legend:
[1] = target: T1, Eukaryotic Translation Elongation Factor 2 (EEF2) (PG786) (Homo sapiens, UniProt P13639); experiment: Isolation of proteins binding 3H-triptolide in Jurkat cells; settings: 3H-labeled Jurkat cell extract
T1 construct: endogenous in cells; host or cells: Jurkat
Method: (§1) Triptolide target molecules were isolated and identified by purification and identification of molecules that bind ^3H-triptolide. Jurkat cells from expanding cultures were labeled with ^3H-triptolide by cultivation at 37° C. with 5% CO2 for a period of time between a few hours and overnight (usually 6-7 hours) and harvested by centrifugation and washing in ice-cold phosphate buffered saline. The cells (usually 1-3×10^6/ml) were generally labeled with ^3H-triptolide to a final concentration of 35 nM (100 μCi/200 ml of medium). Collected cell pellets were pooled, and the cells were either extracted and subjected to separation and purification at that time, or were frozen and stored at −20° C. as pellets for extraction and investigation at a later time.
(§2) The cells were extracted with M-per buffer (Pierce) and homogenized in presence of a protease inhibitor cocktail, sometimes including other reagents such as deoxyribonuclease (DNase). […] When the extracts components were found not to be sufficiently purified, enriched or reduced in number, 2D gel electrophoresis was employed, followed by fluorography for ^3H-associated radioactivity detection, and MALDI/MS of the corresponding peptides (after proteolysis) and peptide fingerprinting. […]

[2] = target: T2, Thioredoxin Reductase (PG774) (Homo sapiens, UniProt Q16881); experiment: as above; settings: 3H-labeled compound incubated with Jurkat cells
T2 construct: endogenous in cells; host or cells: Jurkat
T2 sequence (Q16881 151-649 limits assumed): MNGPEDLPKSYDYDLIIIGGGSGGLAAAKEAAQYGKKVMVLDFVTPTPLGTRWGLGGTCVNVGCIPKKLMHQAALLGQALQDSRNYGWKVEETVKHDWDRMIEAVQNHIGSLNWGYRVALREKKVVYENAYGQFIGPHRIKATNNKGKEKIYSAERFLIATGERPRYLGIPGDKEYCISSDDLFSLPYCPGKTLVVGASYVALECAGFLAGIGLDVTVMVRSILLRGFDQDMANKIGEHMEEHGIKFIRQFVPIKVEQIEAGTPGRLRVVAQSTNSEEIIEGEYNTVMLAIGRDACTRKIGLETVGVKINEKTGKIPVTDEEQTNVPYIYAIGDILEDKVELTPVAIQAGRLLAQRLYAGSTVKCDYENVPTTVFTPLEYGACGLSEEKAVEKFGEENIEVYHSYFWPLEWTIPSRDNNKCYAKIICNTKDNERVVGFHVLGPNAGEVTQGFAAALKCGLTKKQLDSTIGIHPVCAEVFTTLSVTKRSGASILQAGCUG
Method: as §1, §2

[3] = target: T3, Protein Disulfide Isomerase (PG775) (Homo sapiens, UniProt P07237); experiment: as above; settings: 3H-labeled compound incubated with Jurkat cells
T3 construct: endogenous in cells; host or cells: Jurkat
T3 sequence (P07237 18-508): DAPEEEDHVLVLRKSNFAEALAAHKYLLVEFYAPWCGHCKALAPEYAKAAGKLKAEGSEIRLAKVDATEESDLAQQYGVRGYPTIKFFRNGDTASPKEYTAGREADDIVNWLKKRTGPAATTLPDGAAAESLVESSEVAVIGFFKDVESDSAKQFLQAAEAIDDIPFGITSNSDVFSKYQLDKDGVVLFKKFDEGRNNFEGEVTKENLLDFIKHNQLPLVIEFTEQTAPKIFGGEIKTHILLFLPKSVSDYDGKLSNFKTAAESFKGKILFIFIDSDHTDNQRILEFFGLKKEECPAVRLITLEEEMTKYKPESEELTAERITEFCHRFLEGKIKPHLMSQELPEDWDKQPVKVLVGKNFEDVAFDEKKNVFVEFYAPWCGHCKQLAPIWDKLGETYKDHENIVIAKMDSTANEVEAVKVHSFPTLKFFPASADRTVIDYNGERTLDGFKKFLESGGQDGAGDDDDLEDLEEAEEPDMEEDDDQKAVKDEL
Method: as §1, §2

p53 pathway = settings: cited from earlier work
[4] = system: T4, Hypothetical Protein (GI 11277141), superfamily HSP 90 (PG788) (Homo sapiens); experiment: Isolation of proteins binding 3H-triptolide in Jurkat cells; settings: 3H-labeled Jurkat cell extract
T4 construct: endogenous in cells; host or cells: Jurkat
T4 sequence (P08238 2-724 limits assumed): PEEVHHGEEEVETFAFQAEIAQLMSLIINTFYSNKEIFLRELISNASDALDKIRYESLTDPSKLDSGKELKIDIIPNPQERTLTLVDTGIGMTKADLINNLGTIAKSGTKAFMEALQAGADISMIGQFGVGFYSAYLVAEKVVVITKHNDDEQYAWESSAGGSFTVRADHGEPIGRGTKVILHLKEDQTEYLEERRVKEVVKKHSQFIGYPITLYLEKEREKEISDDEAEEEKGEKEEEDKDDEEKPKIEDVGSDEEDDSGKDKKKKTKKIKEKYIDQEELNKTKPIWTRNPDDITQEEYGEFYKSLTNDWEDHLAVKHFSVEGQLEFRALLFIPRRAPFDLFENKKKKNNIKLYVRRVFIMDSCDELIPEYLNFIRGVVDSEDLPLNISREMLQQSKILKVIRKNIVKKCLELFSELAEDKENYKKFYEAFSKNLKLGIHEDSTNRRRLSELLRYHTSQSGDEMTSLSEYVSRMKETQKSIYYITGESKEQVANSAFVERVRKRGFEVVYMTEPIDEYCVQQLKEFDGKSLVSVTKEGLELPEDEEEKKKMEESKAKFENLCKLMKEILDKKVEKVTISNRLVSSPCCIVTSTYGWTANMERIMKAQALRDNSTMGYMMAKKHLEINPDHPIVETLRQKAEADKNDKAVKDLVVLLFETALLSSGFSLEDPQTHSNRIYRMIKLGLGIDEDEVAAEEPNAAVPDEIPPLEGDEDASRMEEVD
Method: as §1, §2

L-plastin (PG772) = target: T5, L-plastin (PG772) (Homo sapiens, UniProt P13796); experiment: as above; settings: 3H-labeled compound incubated with Jurkat cells
T5 construct: Jurkat cells from expanding cultures were labeled with; endogenous in cells; host or cells: Jurkat
T5 sequence (P13796 whole entry): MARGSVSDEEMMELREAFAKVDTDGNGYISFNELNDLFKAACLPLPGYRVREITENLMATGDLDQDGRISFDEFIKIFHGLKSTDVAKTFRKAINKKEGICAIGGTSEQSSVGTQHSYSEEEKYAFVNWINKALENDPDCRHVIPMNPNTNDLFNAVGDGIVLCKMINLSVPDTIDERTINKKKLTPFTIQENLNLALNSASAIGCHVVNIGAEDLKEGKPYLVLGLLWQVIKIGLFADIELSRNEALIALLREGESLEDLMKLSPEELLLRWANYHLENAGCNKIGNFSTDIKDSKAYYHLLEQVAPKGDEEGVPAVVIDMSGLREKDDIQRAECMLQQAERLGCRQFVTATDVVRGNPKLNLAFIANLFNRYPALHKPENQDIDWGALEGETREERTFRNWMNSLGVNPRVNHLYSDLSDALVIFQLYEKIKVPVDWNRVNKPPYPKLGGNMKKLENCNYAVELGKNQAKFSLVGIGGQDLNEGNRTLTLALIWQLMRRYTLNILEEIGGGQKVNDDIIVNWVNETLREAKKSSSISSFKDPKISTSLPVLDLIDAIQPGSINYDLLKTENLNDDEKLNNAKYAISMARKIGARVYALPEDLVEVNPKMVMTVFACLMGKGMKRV
Method: as §1, with “Collected cell pellets were pooled, and the cells were either extracted and subjected to separation and purification at that time, or were frozen and stored at −20° C. as pellets for extraction and investigation at a later time.” left out
as §2
MALDI-MS peptide fingerprinting analysis identified HSP 90β (PG771) in fraction #4 and L-plastin (PG772) in fraction #9. […] A positive spot on the film (fluorographically positive, therefore positive for ^3H-associated radioactivity) was seen near the 29 kDa protein marker. […]

Structure (SMILES): CC(C)[C@]12O[C@H]1[C@@H]1O[C@]13[C@]1(O[C@H]1C[C@H]1C4=C(CC[C@@]13C)C(=O)OC4)[C@@H]2O [triptolide]
- 3H-associated protein identified as triptolide target: EEF2 [1]: identified
- 3H-associated protein identified as triptolide target: Thioredoxin Reductase [2]: identified
- 3H-associated protein identified as triptolide target: Protein Disulfide Isomerase [3]: identified
- cell cycle arrest induced by p21 after p53 activation (p53 pathway): inhibiting the cell cycle arrest induced by p21 after p53 activation
- 3H-associated protein identified as triptolide target: GI 11277141 [4]: identified
- 3H-associated protein identified as triptolide target: L-plastin (L-plastin (PG772)): identified
